Source: PubChem BioAssay (NCI)
Several values for one entry are separate records, joined by “and”; a condition that tells them apart may be missing. Identical values can stand only once.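 1) Cells in 96-well plates. 2) Compound, 48 h, 5 concentrations. 3) Linear interpolation between surrounding doses. 4) Unreached endpoint = highest concentration. Here, GI50 denotes the concentration required for 50% inhibition of growth. At the TGI there is no net growth.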

Experiments:
Test in all cases: NCI tumour cell line growth inhibition, 48 h
LOX IMVI melanoma = test system: LOX IMVI melanoma
IGROV1 ovarian = test system: IGROV1 ovarian
OVCAR-5 ovarian = test system: OVCAR-5 ovarian
SN12C renal = test system: SN12C renal
A498 renal = test system: A498 renal
RPMI-8226 leukemia = test system: RPMI-8226 leukemia
SF-295 CNS = test system: SF-295 CNS
HT29 colon = test system: HT29 colon
TK-10 renal = test system: TK-10 renal
K-562 leukemia = test system: K-562 leukemia

Compound | TGI (LOX IMVI melanoma) | TGI (IGROV1 ovarian) [µM] | TGI (OVCAR-5 ovarian) | TGI (SN12C renal) [µM] | TGI (A498 renal) | TGI (RPMI-8226 leukemia) [µM] | TGI (SF-295 CNS) | TGI (HT29 colon) [µM] | TGI (TK-10 renal) | TGI (K-562 leukemia) [µM] | GI50 (LOX IMVI melanoma) | GI50 (IGROV1 ovarian) | GI50 (OVCAR-5 ovarian) | GI50 (SN12C renal) | GI50 (A498 renal) | GI50 (RPMI-8226 leukemia) | GI50 (SF-295 CNS) | GI50 (HT29 colon) | GI50 (TK-10 renal) | GI50 (K-562 leukemia)
CC(=O)Nc1ccc(C2[C@H]3C(=O)N(c4ccc(Cc5ccc(N6C(=O)[C@@H]7ON(c8ccccc8)C(c8ccc(NC(C)=O)cc8)[C@@H]7C6=O)cc5)cc4)C(=O)[C@H]3ON2c2ccccc2)cc1 (stereo partly drawn) | > 100 µM | > 100 | > 100 µM | > 100 | > 100 µM | > 100 | > 100 µM | > 100 | > 100 µM | > 100 | – | – | – | – | – | – | – | – | – | –
O=C1C=Cc2ccccc2/C1=C/c1[nH]c(=O)[nH]c1O | > 100 µM | 26.6 | > 100 µM | > 100 | 10.6 µM | > 100 | 8.3 µM | 17.1 | 85.4 µM | 34 | 7 µM | 1.39 µM | 42.8 µM | 10.1 µM | 2.87 µM | 45.2 µM | 3.1 µM | 4.35 µM | 10.5 µM | 2.85 µM
CC1=Cc2cc3[n-]c(cc4nc(cc5[n-]c(cc1n2)cc5C)C(C)=C4CCC(=O)O)c(CCC(=O)O)c3C.[Pd+2] | 39.6 µM | 25.6 | 58.2 µM | 17.9 | 29.8 µM | 36.9 | 36.3 µM | 36.3 | 52.9 µM | > 37 | 15.7 µM | 14.2 µM | 41.6 µM | 9.17 µM | 12.6 µM | 17.3 µM | 17.5 µM | 14.8 µM | 24.9 µM | 11 µM
O=c1cc2ccccc2nn1-c1ccccc1Cl | > 100 µM | > 100 | > 100 µM | > 100 | > 100 µM | > 100 | > 100 µM | > 100 | > 100 µM | > 100 | – | – | – | – | – | – | – | – | – | –
OCCCCC#Cc1ccccc1C#Cc1ccccc1C(F)(F)F | 18.5 µM | 23.2 | 30.8 µM | 26.5 | 19.8 µM | 26 | 6.7 µM | 16.5 | 47.1 µM | 13.9 | 4.99 µM | 11.2 µM | 14.7 µM | 12.2 µM | 5.79 µM | 3.84 µM | 2.34 µM | 4.01 µM | 18.6 µM | 1.09 µM
CNC(=O)c1cccc(-c2ccc3c(N4CCOC[C@@H]4C)nc(N4CCOC[C@@H]4C)nc3n2)c1 | 5.24 µM and > 4.47 µM and > 43.9 µM | – | 73.7 µM and > 4.52 µM | > 100 | 0.0827 µM and 0.142 µM and 0.0801 µM | – | 0.392 µM and 0.795 µM and 0.22 µM | > 100 | 2.25 µM and 1.63 µM and 1.48 µM | > 100 | 0.113 µM and 0.217 µM and 0.228 µM | 0.0443 µM and 0.0381 µM and 0.0224 µM | 0.0765 µM and 0.122 µM and 0.0739 µM | 0.132 µM and 0.121 µM and 0.129 µM | 0.0183 µM and 0.0258 µM and < 0.0141 µM | 0.0486 µM and 0.0473 µM and 0.0363 µM | 0.0494 µM and 0.123 µM and 0.0336 µM | 0.144 µM and 0.355 µM and 0.323 µM | 0.0616 µM and 0.146 µM and 0.113 µM | 0.499 µM and 0.372 µM and 0.445 µM
Nc1ccccc1C#C/C=C\C#Cc1ccc(Cl)cc1Cl | 26.5 µM | 38.7 | 28.7 µM | 30.5 | 27 µM | 30.5 | 20 µM | > 100 | 26.8 µM | > 100 | 11 µM | 14.8 µM | 13.8 µM | 14.4 µM | 12.6 µM | 0.89 µM | 5.17 µM | 15.1 µM | 11.6 µM | 4.84 µM
COC(=O)C1=C(O)C(O)=C(C(=O)OC)C1 | > 100 µM | > 100 | > 100 µM | > 100 | > 100 µM | > 100 | > 100 µM | > 100 | > 100 µM | > 100 | – | – | – | – | – | – | – | – | – | –
Cc1c2cc[nH]c(=O)c2cc2c(=O)c3cnccc3[nH]c12 | > 100 µM | > 100 | > 100 µM | > 100 | > 100 µM | > 100 | > 100 µM | > 100 | > 100 µM | > 100 | – | – | – | – | – | – | – | – | – | –
CCSc1nc(N=Cc2cccs2)c2cn[nH]c2n1 | > 100 µM | > 100 | 50.9 µM | > 100 | 38.1 µM | > 100 | > 100 µM | 80.9 | 41.1 µM | > 100 | 7.89 µM | 23.6 µM | 14.2 µM | 61.9 µM | 10.9 µM | 3.19 µM | 19.1 µM | 16.7 µM | 9.47 µM | 26.1 µM
O=C(c1ccccc1)c1c(C(=O)c2ccccc2)c(-c2ccccc2)c2c(-c3ccccc3)sc(-c3ccccc3)c2c1-c1ccccc1 | > 100 µM | > 100 | > 100 µM | > 100 | > 100 µM | > 100 | > 100 µM | > 100 | > 100 µM | > 100 | – | – | – | – | – | – | – | – | – | –
C/C=C(\C)C(=O)O[C@H]1C=CC(=O)O[C@H]1CNC(=O)[C@H](C)O | 30.4 µM | 53.3 | 38.3 µM | 40.3 | 43.7 µM | 45.7 | > 100 µM | 42.6 | 31.8 µM | > 100 | 15.9 µM | 22.6 µM | 19.9 µM | 18.9 µM | 22.8 µM | 21.3 µM | 32.6 µM | 18.9 µM | 17.2 µM | 22.3 µM
COC(=O)/C(=C\c1c(C)[nH]c2ccccc12)S(=O)(=O)c1ccccc1 | 5.18 µM | 8.94 | 38 µM | 10.3 | 20.9 µM | > 100 | 15.7 µM | > 100 | 96.6 µM | > 100 | 1.99 µM | 1.53 µM | 17.4 µM | 2.55 µM | 5.45 µM | 3.15 µM | 3.07 µM | 5.23 µM | 8.07 µM | > 100 µM
CC(C)(O)C1OCC(C2CCC3(C)C4=CCC5C(C)(C)C(O)CCC5(C)C4CCC23C)CC1O (stereo not drawn) | 42.7 µM | 31 | 39.6 µM | 27.5 | 30.4 µM | 77.8 | 26.8 µM | 25.7 | 25.9 µM | 17.3 | – | – | – | – | – | – | – | – | – | –
C=C1C(=O)OC2CC3(CO3)C3C(O)C(O)CC3(C)CC12 (stereo not drawn) | 23.5 µM | > 100 | 71.7 µM | 68.1 | 64.2 µM | > 100 | > 100 µM | > 100 | > 100 µM | > 100 | – | – | – | – | – | – | – | – | – | –
